Results taken from US12029682B2, “Spray ejector mechanisms and devices providing charge isolation and controllable droplet charge, and low dosage volume ophthalmic administration” (EYENOVIA, INC., priority 2012, dated 2024).
Entries after “also recorded” stand apart in the source; their conditions may differ.

Legend:
[1] = test system: glaucomatous beagles; test: Ocular irritation observations in glaucomatous beagles; format: in vivo, beagle dog; conditions: 6 μl of 0.03% via spray ejector device, compared to traditional eye drop treatment
Procedure: Active drug delivery begins on study day eight. For five days, IOP and PD measurements are taken at 0900. Immediately after 0900 measurements (time 0), each animal receives 6 μl of generic latanoprost in its assigned eye with the ejector device, followed by a second dosing 3 minutes later of an additional 6 μl (to avoid overloading the conjunctival sac). The contralateral eye receives a clinical dose (one drop) of the same commercially-available topical drug from FDA approved container (positive control). The ejector device is checked for accuracy before and after every use (Table 1). Standard measurements continue throughout each day (at 0:30, 0:45, 1, 2, 7 hrs). Possible endpoints include, but are not limited to, excessive ocular irritation, ocular damage, or other illness and injury. […]
On study days 5-9, IOP and PD measurements were taken at approximately 0900 h (time 0). Immediately after these measurements, each animal received 6 μl of 0.03% bimatoprost in its assigned eye via the spray ejector device. The contralateral eye received a clinical dose (one drop) of the same commercially available topical drug from a traditional eyedropper (positive control). The spray ejector device was checked for accuracy before and after every use and required a 10% delivered dose accuracy in pretreatment. Standard measurements continued throughout each day at 0, 1, 2, 4, and 7 hours. Possible endpoints included, but were not limited to, excessive ocular irritation, ocular damage, and other illness or injury. No statistical crossover was utilized for this study.
Ophthalmic examinations (slit lamp with fluorescein and indirect ophthalmoscopy) were performed on the eyes of each animal prior to Study Day 1. Ocular findings were scored according to the McDonald-Shadduck Score System. Ocular findings were recorded using a standardized data collection sheet. Macroscopic observations were recorded in accordance with the Draize Scale for Scoring Ocular Lesions. Animals were assigned treatments based on basic randomization prior to study day one.
Following a 7 day rest period, the eye choice was reversed. Measurements of IOP, heart rate and pupil diameter (PD) were made at 0:15, 0:30, 0:45, 1, 2, 4, 7, and 18 hours in the primary and crossover study. A veterinary ophthalmologist evaluated each test subject before and after the study for evidence of ocular side effects.
Ophthalmic examinations (slit lamp with fluorescein and indirect ophthalmoscopy) were performed on the eyes of each animal prior to study day 1. Ocular findings were scored according to the McDonald-Shadduck score system and macroscopic observations were recorded in accordance with the Draize scale for scoring ocular lesions. Ocular findings were recorded using a standardized data collection sheet.

[2] = test system: glaucomatous beagles; test: Intraocular pressure (IOP), TonoVet, in glaucomatous beagles; format: in vivo, beagle dog

Question: What does the source list for CCNC(=O)CCC/C=C\C[C@@H]1[C@@H](/C=C/[C@@H](O)CCc2ccccc2)[C@H](O)C[C@@H]1O [bimatoprost]?
Answer: irritation [1]: Markedly less irritation; also recorded: Lack of ocular irritation; duration of the dose vs spray ejector device ([2]; 0.03%, one drop by eyedropper): greater; effectiveness at lowering/controlling IOP vs traditional therapy ([2]; 6 μl of 0.03% once daily morning via spray ejector device vs one drop (26-30 μl)): as effective at lowering IOP and constricting the pupil as traditional therapy; also recorded: as effective at controlling IOP as is the traditional therapy; IOP values vs baseline ([2]; 6 μl of 0.03% via spray ejector device): lower than baseline
